{"source": "patent US20050272040A1", "about": "“Method for increasing synaptic growth or plasticity” (priority 2002, published 2005)", "key": {"Hippocampal neurons": {"tested_on": "Hippocampal neurons", "test": "Western blot of VGF protein after BDNF treatment", "type": "cell-based, rat", "source_text": "The products of the genes induced following learning may regulate neuronal plasticity at the single-cell level. VGF, like BDNF, is a secreted polypeptide and thus may be relevant for intercellular communication. A functional role for VGF in synaptic plasticity was thus investigated. To determine whether BDNF-induced transcriptional changes of VGF were accompanied by translational alterations, VGF levels were examined following BDNF treatment by western blot analysis. VGF, migrating as a doublet with an apparent molecular weight of 85-90 kD, increased by 1.5-fold within 3 hours of BDNF exposure. VGF protein levels were maximal at 12 hours and remained elevated for 48 hours of continuous BDNF application. Consequently, increased VGF mRNA levels after 3 hours BDNF treatment were associated with enhanced protein translation. VGF protein processing occurs in both neurons and neuroendocrine cells (Trani et al. (1995) J. Neurochem. 65:2441-2449; Salton et al. (2000) supra). The localization of VGF in dissociated hippocampal cultures was examined using a C-terminal antibody (R-15) which labeled both the soma and neurites indicating translocation to the neuronal processes. The expression of VGF was similar to that previously observed in primary neuronal cultures (Benson and Salton (1996) Brain Res. Dev. Brain Res. 96:219-228) and was punctate in appearance. This pattern is consistent with the regulated release of VGF from large dense core vesicles (Trani et al. (1995) supra; Benson and Salton (1996) supra; Possenti et al. (1999) Endocrinology 140:3727-3735) and indicates a physiological role for the peptide.\nBDNF-treated and untreated hippocampal neurons plated in equal numbers were solubilized in lysis buffer (20 mM Tris pH 8, 0.5% Triton X-100, 0.5% SDS, protease inhibitor tablet, 1 mM PMSF, and 0.5 mM vanadate). The protein content was determined with the BCA protein assay kit (Pierce Chemical Co, Rockford, Ill.). […] The immunopositive bands were visualized by chemiluminescence using the ECL™ detection kit (NEN, Boston, Mass.), quantitated on a BIO-RAD Gel Doc and normalized to actin."}, "[1]": {"tested_on": "individual hippocampal cells", "test": "Single-cell Arc expression (aRNA amplification, real-time RT-PCR) after patch-clamp", "type": "cell-based, rat", "details": "BDNF-treated cells, electrophysiologic responders (n=7) vs non-responders (n=9), p<0.05", "description": "FIG. 1A presents Arc expression in individual BDNF-treated cells following electrophysiological recordings and aRNA amplification. Arc transcription was measured by real-time RT-PCR and then normalized to internal GAPDH levels. The data are then expressed as a ratio of the average Arc expression in the seven control cells (expression ratio). FIG. 1B presents a correlation of Arc expression ratios to individual cell's synaptic BDNF responses. Average synaptic charge 3 to 5 minutes post-BDNF exposure expressed as a fold increase over baseline (−2 to 0 minute) was plotted against Arc expression ratios shown in FIG. 1A. Each circle represents one BDNF-treated cell. The cell number next to the circle corresponds with the cell number in FIG. 1A. Dashed line depicts a correlation coefficient indicating significance (r=0.66., p<0.005). The data are categorized into two groups of BDNF-treated cells: a cluster of non-responders (shaded) and a spread of responders (clear).\nThe molecular genetics of differential synaptic responses to BDNF was examined by performing single-cell transcriptional analysis after whole-cell patch-clamp. […] FIG. 1A represents Arc expression in cells exposed to BDNF relative to the average Arc expression in cells not exposed to BDNF (control) as assessed by real-time RT-PCR (expression ratio). […]"}}, "data": [{"substance": "BDNF: neurotrophin, 50 ng/ml, Preprotech; induces synaptic plasticity in hippocampal neurons", "values": [{"measurement": "Time VGF protein levels remained elevated", "setting": "Hippocampal neurons; continuous BDNF application", "result": 48, "unit": "h"}, {"measurement": "Time of maximal VGF protein levels", "setting": "Hippocampal neurons; continuous BDNF application", "result": 12, "unit": "h"}, {"measurement": "Increase in VGF protein", "setting": "Hippocampal neurons; within 3 hours of BDNF exposure, western blot", "result": 1.5, "unit": "fold"}, {"measurement": "Increase in Arc expression, responders relative to non-responders", "setting": "[1]", "result": 17, "unit": "fold"}]}]}
